Results as given in BigSolDB 2.1.

COc1cc(Cc2cnc(N)nc2N)cc(OC)c1OC
Conditions | solubility (mole fraction)
in THF, 276.05 K | 0.000608
in THF, 281.81 K | 0.000714
in THF, 287.31 K | 0.000857
in THF, 292.65 K | 0.000987
in THF, 298.08 K | 0.00117
in THF, 303.12 K | 0.00137
in THF, 306.95 K | 0.00155
in THF, 311.69 K | 0.00178
in THF, 316.74 K | 0.00208
in THF, 321.34 K | 0.00244
in THF, 326.91 K | 0.00296
in THF, 333.87 K | 0.00377
in acetone, 276.94 K | 0.000456
in acetone, 282.12 K | 0.00054
in acetone, 288.62 K | 0.000664
in acetone, 292.94 K | 0.00076
in acetone, 297.96 K | 0.00089
in acetone, 304.17 K | 0.00108
in acetone, 309.34 K | 0.00128
in acetone, 314.34 K | 0.00149
in acetone, 319.07 K | 0.00173
in acetone, 323.51 K | 0.00199
in ethanol, 281.15 K | 0.000356
in ethanol, 287.25 K | 0.000461
in ethanol, 292.64 K | 0.000545
in ethanol, 297.95 K | 0.000681
in ethanol, 302.05 K | 0.000833
in ethanol, 307.85 K | 0.00105
in ethanol, 311.35 K | 0.00124
in ethanol, 315.24 K | 0.00151
in ethanol, 318.85 K | 0.00177
in ethanol, 323.95 K | 0.00223
in ethanol, 326.65 K | 0.00255
in ethanol, 330.66 K | 0.00309
in ethanol, 335.25 K | 0.00388
in isopropanol, 277.17 K | 0.000109
in isopropanol, 282.82 K | 0.000156
in isopropanol, 288.28 K | 0.000202
in isopropanol, 293.13 K | 0.000255
in isopropanol, 297.57 K | 0.000322
in isopropanol, 304.04 K | 0.000468
in isopropanol, 309.36 K | 0.000644
in isopropanol, 315.13 K | 0.00091
in isopropanol, 319.53 K | 0.00117
in isopropanol, 324.04 K | 0.00151
in isopropanol, 328.37 K | 0.0019
in isopropanol, 333.64 K | 0.00247
in methanol, 277.02 K | 0.000828
in methanol, 282.85 K | 0.001
in methanol, 288.09 K | 0.0012
in methanol, 293.03 K | 0.00143
in methanol, 298.17 K | 0.00173
in methanol, 304.24 K | 0.00217
in methanol, 309.36 K | 0.00265
in methanol, 314.12 K | 0.0032
in methanol, 319.06 K | 0.00392
in methanol, 323.53 K | 0.00471
in methanol, 328.15 K | 0.00571
in methanol, 333.73 K | 0.0072
in n-butanol, 276.35 K | 0.000157
in n-butanol, 282.63 K | 0.000254
in n-butanol, 287.96 K | 0.000359
in n-butanol, 292.84 K | 0.000473
in n-butanol, 298.46 K | 0.000635
in n-butanol, 303.72 K | 0.000844
in n-butanol, 308.84 K | 0.00106
in n-butanol, 313.36 K | 0.00133
in n-butanol, 318.45 K | 0.00175
in n-butanol, 323.73 K | 0.00235
in n-butanol, 329.21 K | 0.00306
in n-butanol, 333.73 K | 0.00386
in n-propanol, 277.35 K | 0.000278
in n-propanol, 283.63 K | 0.000328
in n-propanol, 288.97 K | 0.000414
in n-propanol, 294.05 K | 0.000531
in n-propanol, 298.93 K | 0.000677
in n-propanol, 303.84 K | 0.000866
in n-propanol, 308.44 K | 0.00109
in n-propanol, 314.54 K | 0.00148
in n-propanol, 319.17 K | 0.00186
in n-propanol, 323.48 K | 0.00231
in n-propanol, 328.57 K | 0.00298
in n-propanol, 334.15 K | 0.00392
in sec-butanol, 276.85 K | 0.000153
in sec-butanol, 283.66 K | 0.000179
in sec-butanol, 290.08 K | 0.0003
in sec-butanol, 294.67 K | 0.000422
in sec-butanol, 298.45 K | 0.000562
in sec-butanol, 303.74 K | 0.000758
in sec-butanol, 308.84 K | 0.00101
in sec-butanol, 313.35 K | 0.00131
in sec-butanol, 318.46 K | 0.00172
in sec-butanol, 323.56 K | 0.00231
in sec-butanol, 328.66 K | 0.0029
in sec-butanol, 333.74 K | 0.00377
